From patent US20220257722A1, “COMPOSITIONS AND METHODS OF TREATING AND PREVENTING SYSTEMIC COMPLICATIONS OF ACUTE ILLNESS” (United States Government As Represented By The Department …, priority 2019, published 2022)

System: rat small intestine
Assay: In vivo small intestinal perfusion: FITC-LPS transport into portal vein and mesenteric lymph during OA/TCA exposure
Settings: for AUC0-90 of PV FITC-LPS / AUC0-90 of lymph FITC-LPS: OA/TCA-augmented, 0-90 min; for OA/TCA-induced FITC-LPS transport into the PV: intraduodenal FITC-LPS 50 μg/ml + OA 30 mM/TCA 10 mM, anesthetized rats; for FITC-LPS transport into the lymph: intraduodenal FITC-LPS + OA/TCA; for TDG-related augmentation of FITC-LPS transport into the lymph: L-NAME 0.1 mM perfused or PG97-269 0.3 mg/kg iv before TDG; for inhibitory effect of TDG on FITC-LPS transport into the PV: L-NAME 0.1 mM perfused or PG97-269 0.3 mg/kg iv before TDG 50 μg/kg iv; for AUC0-90 of lymph FITC-LPS compared with the +TDG group / TDG-induced reduction of AUC0-90 PV FITC-LPS / lymph output in TDG-treated rats: L-NAME or PG97-269 before TDG
Method: In vivo small intestinal perfusion. Intraduodenal perfusions combined with PV and mesenteric lymph cannulation were carried out (1, 48). Under isoflurane anesthesia (2%), the animal was placed supine on a recirculating heating block system (Summit Medical Systems, Bend, Oreg., USA) in order to maintain body temperature at 36-37° C. Prewarmed saline was infused via the right femoral vein at 1.08 ml/h using a Harvard infusion pump (Harvard Apparatus, Holliston, Mass., USA). The abdomen was incised, and the PV was cannulated with a polyethylene (PE)-50 tube attached with 23G needle and fixed by methylacrylate adhesive at the insertion site. The tube was filled with heparinized saline enabling repeated blood sampling. PV samples (0.2 ml each) were collected every 15 min, followed by 0.2 ml flushes with heparinized saline. […] The lymph solution was continuously collected into a 1.5-ml tube every 15 min. A polyethylene tube (diameter 5 mm) filled with PBS was inserted through the forestomach and tied at 0.5 cm caudal from the pyloric ring. After bolus perfusion of 2 ml PBS into the duodenum from the tube, followed by stabilization for ˜30 min, the time was set as t=0 min. FITC-LPS (50 μg/ml) in 2-ml PBS with or without OA (30 mM) and TCA (10 mM) was bolus perfused at t=0 min. In order to maintain lymph flow, 2-ml PBS was perfused every 30 min. PV and lymph samples were collected every 15 min for 90 min. Blood samples were collected in a 0.5-ml tube containing 1 μl each of EDTA (0.5 M), and immediately centrifuged at 5,000 × g for 5 min, after which the plasma was stored at −80° C. until use. The lymph solution was weighed to measure its volume and centrifuged, with the supernatant stored at −80° C. until use. At 90 min, after collection of PV and lymph samples, arterial blood was taken from abdominal aorta for a reference sample, followed by euthanasia by thoracotomy.
The appearance of FITC-LPS into the PV plasma and lymph was assessed by fluorescence measurement using Synergy-2. Fluorescence intensity in the t=0 sample as background was subtracted from the fluorescence values measured in other time point samples. For lymph samples, the FITC-LPS concentration was multiplied by the lymph output in order to calculate total FITC-LPS appearance. FITC-LPS appearance was expressed as PV FITC-LPS content (ng/ml) or FITC-LPS transport into lymph (ng/15 min). Furthermore, total FITC-LPS transport into the PV and lymph was assessed by calculating the area under the curve (AUC) during 0-90 min of FITC-LPS appearance (AUC0-90) using the trapezoidal rule and expressed as AUC0-90 of PV FITC-LPS (μg·min/ml) and AUC0-90 of lymph FITC-LPS (μg).
Intestinal perfusion study: drug treatment. The lipid raft inhibitor MβCD (1 mM), the CD36 inhibitor SSO (1 mM), and PL81 (3%) were added to the initial perfusion of 2-ml PBS at t=−30 min, followed by their addition to the luminal FITC-LPS/OA/TCA solution at t=0 min.
Effect of TDG on intestinal LPS transport. The stable, DPP4-resistant analog of GLP-2, TDG (13) was used to examine the acute effect of GLP-2 on LPS transport into PV and mesenteric lymph in vivo. TDG (50 μg/kg) was bolus injected iv 15 min before the luminal FITC-LPS/OA/TCA perfusion (at t=−15 min). L-NAME was added to the first perfusion of 2 ml PBS (at t=−30 min). PG97-269 (0.3 mg/kg) was bolus injected iv 20 min before the luminal FITC-LPS/OA/TCA perfusion (at t=−20 min).

Compound | AUC0-90 of PV FITC-LPS | AUC0-90 of lymph FITC-LPS | OA/TCA-induced FITC-LPS transport into the PV | FITC-LPS transport into the lymph | lymphatic output (t=0-30 min, TDG 50 μg/kg iv at t=-15 min vs non-pretreated controls) | TDG-related augmentation of FITC-LPS transport into the lymph | inhibitory effect of TDG on FITC-LPS transport into the PV | AUC0-90 of lymph FITC-LPS compared with the +TDG group | TDG-induced reduction of AUC0-90 PV FITC-LPS | lymph output in TDG-treated rats
methyl-β-cyclodextrin [MβCD] | abolished | no effect | abolished | no effect |  |  |  |  |  | 
CCCCCCCC/C=C\CCCCCCCC(=O)ON1C(=O)CC(S(=O)(=O)O)C1=O (centres unmarked) [SSO, sulfosuccinimidyl oleate] | failed to affect | no effect | inhibited | no effect |  |  |  |  |  | 
CC[C@H](C)[C@H](NC(=O)[C@H](Cc1ccccc1)NC(=O)[C@H](CC(=O)O)NC(=O)[C@H](CCCNC(=N)N)NC(=O)[C@H](C)NC(=O)[C@H](C)NC(=O)[C@H](CC(C)C)NC(=O)[C@H](CC(N)=O)NC(=O)[C@H](CC(=O)O)NC(=O)[C@H](CC(C)C)NC(=O)[C@@H](NC(=O)[C@@H](NC(=O)[C@H](CC(N)=O)NC(=O)[C@H](CCSC)NC(=O)[C@H](CCC(=O)O)NC(=O)[C@H](CC(=O)O)NC(=O)[C@H](CO)NC(=O)[C@H](Cc1ccccc1)NC(=O)[C@H](CO)NC(=O)CNC(=O)[C@H](CC(=O)O)NC(=O)CNC(=O)[C@@H](N)Cc1c[nH]cn1)[C@@H](C)O)[C@@H](C)CC)C(=O)N[C@@H](CC(N)=O)C(=O)N[C@@H](Cc1c[nH]c2ccccc12)C(=O)N[C@@H](CC(C)C)C(=O)N[C@H](C(=O)N[C@@H](CCC(N)=O)C(=O)N[C@H](C(=O)N[C@@H](CCCCN)C(=O)N[C@H](C(=O)N[C@H](C(=O)N[C@@H](CC(=O)O)C(=O)O)[C@@H](C)O)[C@@H](C)CC)[C@@H](C)O)[C@@H](C)CC [TDG] | reduced | no significant effect | abolished | rapidly increased | rapid increase |  |  |  |  | 
COC(=O)[C@@H](N)CCCNC(=N)N[N+](=O)[O-] [L-NAME, Nω-nitro-L-arginine methyl ester] |  |  |  |  |  | inhibited | reduced | reduced | reversed | reduced
[Ac-His^1, D-Phe^2, Lys^15, Arg^16, Leu^27]-VIP(1-7)-GRF(8-27) (HFDAVFTNSYRKVLKRLSARKLLQDIL; HELM PEPTIDE1{[ac].H.[dF].D.A.V.F.T.N.S.Y.R.K.V.L.K.R.L.S.A.R.K.L.L.Q.D.I.L.[am]}$$$$V2.0; SMILES CC[C@H](C)[C@H](NC(=O)[C@H](CC(=O)O)NC(=O)[C@H](CCC(N)=O)NC(=O)[C@H](CC(C)C)NC(=O)[C@H](CC(C)C)NC(=O)[C@H](CCCCN)NC(=O)[C@H](CCCNC(=N)N)NC(=O)[C@H](C)NC(=O)[C@H](CO)NC(=O)[C@H](CC(C)C)NC(=O)[C@H](CCCNC(=N)N)NC(=O)[C@H](CCCCN)NC(=O)[C@H](CC(C)C)NC(=O)[C@@H](NC(=O)[C@H](CCCCN)NC(=O)[C@H](CCCNC(=N)N)NC(=O)[C@H](Cc1ccc(O)cc1)NC(=O)[C@H](CO)NC(=O)[C@H](CC(N)=O)NC(=O)[C@@H](NC(=O)[C@H](Cc1ccccc1)NC(=O)[C@@H](NC(=O)[C@H](C)NC(=O)[C@H](CC(=O)O)NC(=O)[C@@H](Cc1ccccc1)NC(=O)[C@H](Cc1c[nH]cn1)NC(C)=O)C(C)C)[C@@H](C)O)C(C)C)C(=O)N[C@@H](CC(C)C)C(N)=O) [PG97-269] |  |  |  |  |  | inhibited | no effect | reduced | no effect | reduced
